{"source": "patent US20240033244A1", "about": "“COMPOSITIONS AND METHODS FOR INHIBITING YTHDF1” (SHANGHAI INSTITUTE OF MATERIA MEDICA, CHINESE ACADEMY OF …, priority 2020, published 2024)", "key": {"OT-I T cells": {"test_system": "OT-I T cells", "experiment": "CFSE-labeled OT-I T cell proliferation in vitro", "format": "cell-based, mouse", "conditions": "5×10^5 CFSE-labeled OT-I T cells, various doses, 1 μg/mL OT-I peptide 24 hours", "description": "1×10^7 lymphocytes form lymph nodes of naïve OT-I mice were washed with PBS twice, then resuspend in 1 mL PBS. 1 μL CFSE Tracker was added into suspension and incubated in 37° C. for 5 min. Then 5 mL RPMI-1640 medium with 10% FBS was added to stop CFSE labelling, incubated at room temperature for 5 min. After centrifugation, CFSE-labeled T cells were suspended with another 5 mL RPMI-1640 medium at least for 10 min in room temperature.\nIn a further experiment, 5×10^5 CFSE-labeled OT-I T cells were treated with SAA of various doses in 96-well plates, then the cells were stimulated with 1 μg/mL OT-I peptide for 24 hours. Divided T cells were analyzed by FACS."}, "YTHDF1 in 293T cells": {"molecular_target": "T1, YTHDF1 in 293T cells (Homo sapiens, UniProt Q9BYJ9)", "T1 construct": "endogenous in cells; host or cells: 293T (ATCC)", "experiment": "Cellular thermal shift assay (CETSA) in 293T cells", "format": "cell-based", "conditions": "100 μM SAA for 4 hours", "description": "The cellular thermal shift assay (CETSA) was conducted according to the protocol reported previously. 293T cell line (ATCC) used in the assay was cultured at 37° C., 5% CO2, in DMEM culture medium (Life Technologies) containing 10% fetal calf serum (Gibco, U.S.A.), 1% penicillin/streptomycin (Life Technologies). 293T cells were collected after incubated with PBS buffer as control or 100 μM SAA for 4 hours and equally divided into twelve parts, respectively. The divided parts were heated under series of temperature range from 39° C. to 59° C. for 3 minutes and cooled at 4° C. for 3 minutes immediately. Then, the cells were lysed via freeze-thawing with liquid nitrogen and the protein samples were collected by centrifugation. Though adding in SDS loading and boiling at 99° C. for 5 minutes, the samples were prepared for western blot detection. In the western blot assays, GAPDH was used as the internal reference. And the quantitative analysis of the results of the assay was performed via ImageJ software.\nFurther, the binding of SAA to YTHDF1 in cells was also examined. Cellular thermal shift (CETSA) assay was performed with 293T cell line, which was collected for heating at temperatures as indicated. After incubating the cells with 100 μM SAA for 4 hours, YTHDF1 protein in the incubated 293T cells were examined with western blot. […]"}, "[1]": {"test_system": "classical DCs in draining lymph node", "experiment": "Ex vivo cross-priming by DCs sorted from draining lymph node of treated mice", "format": "in vivo, mouse", "conditions": "four DC subtypes from SAA treated B16-OVA bearing mice, day 12", "description": "For in vitro cross-presentation study, mature FLT3L-DCs were harvested on day 9 and purified by EasySep Mouse CD11 c Positive Selection Kit II, then treated with 10 μM SAA or DMSO in IMDM medium (contain 10% bovine and 100 ng/mL FLT3L) for 10 h. […] Then antigen-obtained DCs were purified and co-cultured with naïve T cells from OT-1 mice at a ratio of 1:10 for 96 h. The co-culture medium was 1640 RPMI contains 10% fetal bovine with or without 1 μg/mL OT-1 (OVA 257-264) peptide. For ex vivo DCs cross-presentation assay, four types of DCs (migration CD11b DC, migration CD103′ DC, resident CD11b DC and resident CD8^+ DC) were sorted in draining lymph node from SAA treated B16-OVA bearing mice at day 12. These DCs were co-cultured with OT-1 naïve T cells in the ratio of 1:10 for 96 hours with or without OT-1 peptide. Supernatant IFN-γ production was detected via CBA assay.\nFurther, four types of classical DCs (resident CD11b^+, resident CD8α^+, migratory CD11b^+ and migratory CD103^+) in draining lymph node were sorted from SAA treated B16-OVA bearing wild-type mice on day 12. These DCs were co-cultured with OT-I T cells for 72 hours. Then, IFN-γ production was assessed by IFN-γ cytometric bead array."}, "YTHDF1 mutant H528A": {"molecular_target": "T2, YTHDF1 mutant H528A (Homo sapiens, UniProt Q9BYJ9, H528A)", "T2 construct": "GST (N, cleaved yes); made in house; host or cells: E. coli BL21 (DE3)", "T2 sequence (Q9BYJ9 with tags, fused parts or gaps H528A)": "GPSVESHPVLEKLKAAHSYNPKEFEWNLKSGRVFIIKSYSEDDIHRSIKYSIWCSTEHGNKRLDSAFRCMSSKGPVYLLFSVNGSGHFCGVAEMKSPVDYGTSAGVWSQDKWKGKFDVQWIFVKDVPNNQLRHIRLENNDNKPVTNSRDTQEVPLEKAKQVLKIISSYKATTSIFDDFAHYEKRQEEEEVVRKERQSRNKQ", "experiment": "FP assay with YTHDF1 mutant H528A", "format": "binding", "description": "The protein YTHDF1 (361-559) (SEQ ID NO: 2) and its mutants (SEQ ID NOs: 4-13) were cloned into pGEx-6P-1 vector (obtained from YouBio Co, Ltd, Catalog NO: VT1258), and the His-YTHDF1 (361-559) (SEQ ID NO: 3) used in AlphaScreen Assay was cloned into modified pET28a vector (obtained from YouBio Co, Ltd, Catalog NO: VT1207). The vectors were transformed into E. coli BL21 (DE3) cells and cultured at 37° C. When OD value reached 0.6˜0.8, 1 mM Isopropyl-β-D-thiogalactopyranoside was added to overexpress the protein at 16° C. overnight. […] Then, the proteins were further purified via cation exchange (HiTrap SP, GE Healthcare) and finally through a Superdex 75 10/300 column (GE Healthcare). At last, the purified YTHDF1(361-559) and the mutants were kept in buffer which contains 20 mM Hepes (pH 7.4) and 200 mM NaCl. For His-YTHDF1 (361-559), the protein was purified via Ni-NTA chromatography (HisTrap FF, GE Healthcare), followed by cation exchange and Superdex 75 10/300 column in sequence. And the obtained protein was kept in the buffer with the same ingredients.\nAll of the YTHDF1 (361-559), the 5′-FAM labeled m^6A-containing mRNA (5′-FAM-[…] (m^6A) CUGUG-3′, SEQ ID NO: 14) and the candidate compounds were diluted with assay buffer (20 mM Hepes (pH 7.4), 50 mM NaCl, 0.01% (v/v) tween 20, 5% (v/v) glycerol). […] At last, the mixtures were measured by Envision Readers (PerkinElmer). […]"}}}
{"smiles": "O=C(/C=C/c1ccc(O)c(O)c1/C=C/c1ccc(O)c(O)c1)O[C@H](Cc1ccc(O)c(O)c1)C(=O)O", "note": "[SAA, Salvianolic Acid A]", "values": [{"measurement": "T cell proliferation", "setting": "OT-I T cells", "value": "could not influence T cell proliferation"}, {"measurement": "CETSA curve shift to the right (YTHDF1 stability)", "setting": "YTHDF1 in 293T cells", "value": "about 2 degrees"}, {"measurement": "cross-priming of T cells (IFN-γ production)", "setting": "[1]", "value": "better cross-priming of T cells than DMSO treated group"}, {"measurement": "inhibitory activity against mutant binding to m6A versus wildtype", "setting": "YTHDF1 mutant H528A", "value": "significantly weaker than that against wildtype YTHDF1"}]}
